IC50 data for 46 compounds are collected here from patent US20170037028A1 (BAYER PHARMA AKTIENGESELLSCHAFT, priority 2013, published 2017).

The target of the assay is T1, GLUT1 (Homo sapiens, UniProt P11166).
T1 sequence (P11166 1-492): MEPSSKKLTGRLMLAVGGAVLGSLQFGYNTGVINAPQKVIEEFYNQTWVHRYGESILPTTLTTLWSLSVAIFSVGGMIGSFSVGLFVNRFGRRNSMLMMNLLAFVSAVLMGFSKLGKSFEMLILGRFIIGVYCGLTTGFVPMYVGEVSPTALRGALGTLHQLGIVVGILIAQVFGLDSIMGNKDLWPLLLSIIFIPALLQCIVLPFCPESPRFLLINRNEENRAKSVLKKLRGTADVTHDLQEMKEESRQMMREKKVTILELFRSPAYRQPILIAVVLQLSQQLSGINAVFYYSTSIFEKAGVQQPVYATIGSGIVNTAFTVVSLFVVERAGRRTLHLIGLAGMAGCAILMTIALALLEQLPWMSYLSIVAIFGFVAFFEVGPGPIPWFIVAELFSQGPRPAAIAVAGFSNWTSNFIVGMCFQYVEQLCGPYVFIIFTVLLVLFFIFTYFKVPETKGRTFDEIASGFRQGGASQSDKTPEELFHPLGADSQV
As to the kind of experiment: Indirect measurement of GLUT1 activity by quantification of intracellular ATP levels (glucose induced ATP increase). The assay is classed as cell-based. Details: endogenous in cells; host or cells: DLD1 or CHO-K1. As to conditions: read-out: IC50 regarding glucose induced ATP increase (GLUT1 inhibition). A digest of the protocol:
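Intracellular ATP was measured by CellTiter-Glo luminescence as an indirect readout of transport: glucose-driven for GLUT1, fructose-driven for GLUT2. DLD1 or CHO-K1 cells were used alongside an oxidative phosphorylation inhibitor. Beforehand, cells were held overnight in glucose-free 1% FCS medium to deplete ATP.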
Consider `COc1cc(C(=O)Nc2c(C(F)(F)F)nn(Cc3ccc(F)cc3)c2C)c2ccccc2n1` [Example 1436], for which the IC50 (usually the concentration at which inhibition is half-maximal) was determined as 0.0632 µM.

On to `Cc1nn(Cc2ccc(C(=O)NCC(C)(C)CO)cc2)c(C)c1NC(=O)c1cc(C(F)(F)F)nc2ccc(Br)cc12` [Example 1134], for which the IC50 worked out at 0.0973 µM.

Take `Cc1cccc(Cn2nc(C(F)(F)F)c(NC(=O)c3cc(C(N)=O)nc4cccc(F)c34)c2C)c1` [Example 1479]: the IC50 came out at 0.0227 µM.

`Cc1c(NC(=O)c2cc(C(N)=O)nc3cc(F)ccc23)c(C(F)(F)F)nn1Cc1ccc(C(=O)N2CCC2)cc1` [Example 372, N^4-{1-[4-(azetidin-1-ylcarbonyl)benzyl]-5-methyl-3-(trifluoromethyl)-1H-pyrazol-4-yl}-7-fluoroquinoline-2,4-dicarboxamide]: the half-maximal inhibitory concentration (IC50) was found to be 0.02 µM.

As to `COc1ccc(CCn2nc(C)c(NC(=O)c3cc(OC)nc4ccccc34)c2C)cc1` [Example 1341], the IC50 worked out at 0.297 µM.

Regarding `Cc1nn(Cc2ccc(CC(N)=O)cc2)c(C)c1NC(=O)c1cc(C(F)(F)F)nc2ccc(Br)cc12` [Example 152, N-{1-[4-(2-amino-2-oxoethyl)benzyl]-3,5-dimethyl-1H-pyrazol-4-yl}-6-bromo-2-(trifluoromethyl)quinoline-4-carboxamide], the IC50 is 0.0583 µM.

`CNC(=O)CN(C)C(=O)c1ccc(Cn2nc(C)c(NC(=O)c3cc(C(F)(F)F)nc4ccc(Br)cc34)c2C)cc1` [Example 1187]: the IC50 amounted to 0.288 µM.

With `Cc1nc(Cn2nc(C)c(NC(=O)c3cc(C(N)=O)nc4ccccc34)c2C)cs1` [Example 1568], the IC50 was 0.0273 µM.

For the compound `Cc1nn(Cc2cc(C3CC3)on2)c(C)c1NC(=O)c1cc(C(N)=O)nc2cc(F)c(Cl)cc12` [Example 417, 6-chloro-N^4-{1-[(5-cyclopropyl-1,2-oxazol-3-yl)methyl]-3,5-dimethyl-1H-pyrazol-4-yl}-7-fluoroquinoline-2,4-dicarboxamide], the concentration for half-maximal inhibition (IC50) was 0.0007 µM.

Take `Cc1nn(Cc2ccc(F)c(F)c2)c(C)c1NC(=O)c1cc(C(F)(F)F)nc2cc(Br)ccc12` [Example 189, 7-bromo-N-[1-(3,4-difluorobenzyl)-3,5-dimethyl-1H-pyrazol-4-yl]-2-(trifluoromethyl)quinoline-4-carboxamide]: the IC50 was determined as 0.165 µM.

Turning to `Cc1c(NC(=O)c2cc(C(F)(F)F)nc3ccc(Br)cc23)c(C(F)(F)F)nn1Cc1ccc(C(=O)NCCO)cn1` [Example 1065], the IC50 worked out at 0.0187 µM.

On to `Cc1c(NC(=O)c2cc(C(F)(F)F)nc3ccc(Br)cc23)c(C(F)(F)F)nn1Cc1ccc(S(C)(=O)=O)cc1` [Example 1430], for which the IC50 was 0.0663 µM.

Consider `Cc1c(NC(=O)c2cc(C(F)(F)F)nc3ccc(Br)cc23)c(C(F)(F)F)nn1Cc1ccc(C#N)nc1` [Example 1056], for which the IC50 was found to be 0.015 µM.

For `Cc1nn(Cc2ccc(C(=O)N3CCCC(O)C3)cc2)c(C)c1NC(=O)c1cc(C(F)(F)F)nc2ccc(Br)cc12` (racemic) [Example 1162], the concentration for half-maximal inhibition (IC50) stood at 0.164 µM.

Consider `COc1ccc(Cn2nc(C)c(NC(=O)c3cc(C(N)=O)nc4cc(F)c(Cl)cc34)c2C)cn1` [Example 283, 6-chloro-7-fluoro-N^4-{1-[(6-methoxypyridin-3-yl)methyl]-3,5-dimethyl-1H-pyrazol-4-yl}quinoline-2,4-dicarboxamide], for which the half-maximal inhibitory concentration (IC50) came out at 0.0012 µM.

Regarding `Cc1c(NC(=O)c2cc(C(N)=O)nc3cc(F)ccc23)c(C(F)(F)F)nn1Cc1c(F)cccc1F` [Example 1627], the IC50 worked out at 0.0305 µM.

Regarding `COc1cc(C#N)ccc1Cn1nc(C)c(NC(=O)c2cc(C(N)=O)nc3cccc(F)c23)c1C` [Example 1650], the concentration for half-maximal inhibition (IC50) stood at 0.0103 µM.

Turning to `CC(=O)c1cccc(Cn2nc(C(F)(F)F)c(NC(=O)c3cc(C(N)=O)nc4cc(F)c(Cl)cc34)c2C)c1` [Example 1621], the half-maximal inhibitory concentration (IC50) was 0.0153 µM.

As to `Cc1nn(Cc2ccccc2C(F)(F)F)c(C)c1NC(=O)c1cc(C(F)(F)F)nc2ccc(Br)cc12` [Example 1301], the IC50 stood at 11.1 µM.

In the case of `Cc1c(NC(=O)c2cc(C(N)=O)nc3c(F)cccc23)c(C(F)(F)F)nn1Cc1ccc(C#N)cc1` [Example 247, N^4-[1-(4-cyanobenzyl)-5-methyl-3-(trifluoromethyl)-1H-pyrazol-4-yl]-8-fluoroquinoline-2,4-dicarboxamide], the IC50 was determined as 0.0049 µM.

Regarding `COc1cc(C#N)ccc1Cn1nc(C(F)(F)F)c(NC(=O)c2cc(C(N)=O)nc3cccc(F)c23)c1C` [Example 1647], the IC50 is 0.0027 µM.

Take `Cc1nn(Cc2ccc(F)cc2)c(C)c1NC(=O)c1cc(C(F)(F)F)nc2ccc(NS(C)(=O)=O)cc12` [Example 1257]: the IC50 amounted to 2.05 µM.

In the case of `COc1cc(C#N)ccc1Cn1nc(C(F)(F)F)c(NC(=O)c2cc(C(N)=O)nc3cc(F)ccc23)c1C` [Example 1646], the IC50 worked out at 0.0023 µM.

Regarding `CNC(=O)c1c(NC(=O)c2cc(C(N)=O)nc3ccccc23)c(C)nn1Cc1ccc(F)cc1` [Example 1258], the IC50 was 2.06 µM.

With `Cc1c(NC(=O)c2cc(C(N)=O)nc3ccccc23)c(C(F)(F)F)nn1Cc1cc(C#N)no1` [Example 1672], the IC50 was determined as 0.151 µM.

`CCc1nc(Cn2nc(C(F)(F)F)c(NC(=O)c3cc(C(N)=O)nc4cc(F)ccc34)c2C)no1` [Example 1548]: the IC50 worked out at 0.0265 µM.

For the compound `COc1cc(Cn2nc(C(F)(F)F)c(NC(=O)c3cc(C(N)=O)nc4cc(F)ccc34)c2C)ccc1C#N` [Example 1664], the IC50 was 0.0026 µM.

Take `Cc1nn(Cc2ccc(C(=O)O)cn2)c(C)c1NC(=O)c1cc(C(N)=O)nc2ccc(F)cc12` [Example 1275]: the IC50 stood at 3.5 µM.

`Cc1c(NC(=O)c2cc(C(N)=O)nc3cccc(F)c23)c(C(F)(F)F)nn1Cc1ccc(F)cc1F` [Example 1440]: the IC50 is 0.0054 µM.

Consider `Cc1c(NC(=O)c2cc(C(N)=O)nc3ccccc23)c(C(F)(F)F)nn1Cc1ccccc1C#N` [Example 271, N^4-[1-(2-cyanobenzyl)-5-methyl-3-(trifluoromethyl)-1H-pyrazol-4-yl]quinoline-2,4-dicarboxamide], for which the IC50 came to 0.0036 µM.

As for `Cc1cc(Cn2nc(C)c(NC(=O)c3cc(C(N)=O)nc4cc(F)c(Cl)cc34)c2C)on1` [Example 411, 6-chloro-N^4-{3,5-dimethyl-1-[(3-methyl-1,2-oxazol-5-yl)methyl]-1H-pyrazol-4-yl}-7-fluoroquinoline-2,4-dicarboxamide], the IC50 amounted to 0.0011 µM.

As to `Cc1nn(Cc2ccc(C(=O)NCCO)cn2)c(C)c1NC(=O)c1cc(C(N)=O)nc2ccc(F)cc12` [Example 1246], the IC50 was determined as 1.66 µM.

As for `CCc1nn(Cc2ccc(F)cc2)c(CC)c1NC(=O)c1cc(C(N)=O)nc2cc(F)ccc12` [Example 1385], the 50% inhibitory concentration (IC50) turned out to be 0.0607 µM.

As for `Cc1nn(Cc2ccc(F)cc2)c(C)c1NC(=O)c1cc(C(F)(F)F)nc2ccc(Cl)cc12` [Example 14, 6-chloro-N-[1-(4-fluorobenzyl)-3,5-dimethyl-1H-pyrazol-4-yl]-2-(trifluoromethyl)quinoline-4-carboxamide], the IC50 worked out at 0.0115 µM.

Regarding `Cc1nn(Cc2ccc(C(=O)NCc3ccc(F)cc3)cc2)c(C)c1NC(=O)c1cc(C(F)(F)F)nc2ccc(Br)cc12` [Example 1119], the IC50 was found to be 0.0651 µM.

Regarding `Cc1c(NC(=O)c2cc(C(N)=O)nc3ccc(Br)cc23)c(C(F)(F)F)nn1Cc1ccc(C#N)cc1F` [Example 305, 6-bromo-N^4-[1-(4-cyano-2-fluorobenzyl)-5-methyl-3-(trifluoromethyl)-1H-pyrazol-4-yl]quinoline-2,4-dicarboxamide], the IC50 came to 0.0014 µM.

As to `Cc1nn(Cc2ccc(C(=O)NCC(O)CO)cn2)c(C)c1NC(=O)c1cc(C(F)(F)F)nc2ccc(Br)cc12` (stereo not shown) [Example 1263], the IC50 came to 2.32 µM.

For `Cc1nn(Cc2cccc(S(C)(=O)=O)c2)c(C)c1NC(=O)c1cc(C(N)=O)nc2ccccc12` [Example 1642], the IC50 turned out to be 0.289 µM.

Turning to `Cc1nn(Cc2ccc(F)cc2)c(C)c1NC(=O)c1cc(O)nc2ccccc12` [Example 1260], the 50% inhibitory concentration (IC50) was found to be 2.17 µM.

As for `Cc1nn(Cc2ccc(C(=O)N(C)C)cn2)c(C)c1NC(=O)c1cc(C(F)(F)F)nc2ccc(Br)cc12` [Example 1221], the IC50 was 0.749 µM.

Take `Cc1nn(Cc2ccc(C(=O)NCc3ccccc3F)cc2)c(C)c1NC(=O)c1cc(C(F)(F)F)nc2ccc(Br)cc12` [Example 1149]: the half-maximal inhibitory concentration (IC50) is 0.127 µM.

`Cc1nn(Cc2ccc(C(=O)NCCCn3ccnc3)cc2)c(C)c1NC(=O)c1cc(C(F)(F)F)nc2ccc(Br)cc12` [Example 1091]: the IC50 turned out to be 0.036 µM.

As for `Cc1c(NC(=O)c2cc(C(N)=O)nc3cccc(F)c23)c(C(F)(F)F)nn1Cc1ccc(C(F)(F)F)cc1` [Example 1591], the half-inhibitory concentration (IC50) was found to be 0.0166 µM.

Turning to `Cc1nc(Cn2nc(C)c(NC(=O)c3cc(C(F)(F)F)nc4ccc(Br)cc34)c2C)cs1` [Example 1354], the IC50 was 0.0489 µM.

For `Cc1nn(Cc2c(F)cc(C#N)cc2F)c(C)c1NC(=O)c1cc(C(N)=O)nc2cccc(F)c12` [Example 393, N^4-[1-(4-cyano-2,6-difluorobenzyl)-3,5-dimethyl-1H-pyrazol-4-yl]-5-fluoroquinoline-2,4-dicarboxamide], the IC50 is 0.0041 µM.

With `Cc1c(NC(=O)c2cc(C(N)=O)nc3cc(F)c(Cl)cc23)c(C(F)(F)F)nn1Cc1cccc(C#N)c1` [Example 1580], the IC50 amounted to 0.0018 µM.
